Experimental data as given in ChEMBL document CHEMBL4014331, “Design and Synthesis of Soluble and Cell-Permeable PI3Kδ Inhibitors for Long-Acting Inhaled Administration” (J Med Chem, 2017).
In brackets after ≈: the same amount, converted by molar mass.

Tests used:
[1] = Metabolic stability in it dosed rat lungs assessed as compound remaining at 4 hrs post dose by LC-MS/MS analysis; type: ADME, organism-based; conditions: lung, inhaled or intranasal, read-out: Stability
PI3K p110 beta/p85 alpha = PI3K p110 beta/p85 alpha (Homo sapiens, UniProt P42338); assay: Inhibition of recombinant human His6-tagged PI3K p110beta/p85alpha using DiC8-PIP2 as substrate preincubated for 15 mins followed by substrate addition measured after 60 mins by ADP-Glo assay; type: protein-complex assay
Sequence of PI3K p110 beta/p85 alpha (P27986 whole entry): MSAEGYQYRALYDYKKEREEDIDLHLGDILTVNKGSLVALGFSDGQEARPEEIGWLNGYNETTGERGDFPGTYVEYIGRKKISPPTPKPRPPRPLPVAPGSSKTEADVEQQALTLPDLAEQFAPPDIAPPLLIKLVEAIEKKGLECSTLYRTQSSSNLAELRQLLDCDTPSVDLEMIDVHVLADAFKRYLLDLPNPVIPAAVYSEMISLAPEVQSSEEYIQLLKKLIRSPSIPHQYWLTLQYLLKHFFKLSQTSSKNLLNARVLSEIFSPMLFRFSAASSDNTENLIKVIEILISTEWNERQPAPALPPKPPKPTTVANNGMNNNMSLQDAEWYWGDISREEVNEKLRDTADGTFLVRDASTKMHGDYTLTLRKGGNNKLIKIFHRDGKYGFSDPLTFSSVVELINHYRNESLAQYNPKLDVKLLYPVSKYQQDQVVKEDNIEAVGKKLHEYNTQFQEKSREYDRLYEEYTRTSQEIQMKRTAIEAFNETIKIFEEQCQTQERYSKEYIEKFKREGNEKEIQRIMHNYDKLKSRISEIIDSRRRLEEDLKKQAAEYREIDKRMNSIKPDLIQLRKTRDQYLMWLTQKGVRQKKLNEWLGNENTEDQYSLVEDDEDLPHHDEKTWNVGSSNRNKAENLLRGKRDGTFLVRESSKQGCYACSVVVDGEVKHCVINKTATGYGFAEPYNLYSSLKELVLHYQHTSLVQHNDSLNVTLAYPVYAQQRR
Sequence of PI3K p110 beta/p85 alpha (P42338 whole entry): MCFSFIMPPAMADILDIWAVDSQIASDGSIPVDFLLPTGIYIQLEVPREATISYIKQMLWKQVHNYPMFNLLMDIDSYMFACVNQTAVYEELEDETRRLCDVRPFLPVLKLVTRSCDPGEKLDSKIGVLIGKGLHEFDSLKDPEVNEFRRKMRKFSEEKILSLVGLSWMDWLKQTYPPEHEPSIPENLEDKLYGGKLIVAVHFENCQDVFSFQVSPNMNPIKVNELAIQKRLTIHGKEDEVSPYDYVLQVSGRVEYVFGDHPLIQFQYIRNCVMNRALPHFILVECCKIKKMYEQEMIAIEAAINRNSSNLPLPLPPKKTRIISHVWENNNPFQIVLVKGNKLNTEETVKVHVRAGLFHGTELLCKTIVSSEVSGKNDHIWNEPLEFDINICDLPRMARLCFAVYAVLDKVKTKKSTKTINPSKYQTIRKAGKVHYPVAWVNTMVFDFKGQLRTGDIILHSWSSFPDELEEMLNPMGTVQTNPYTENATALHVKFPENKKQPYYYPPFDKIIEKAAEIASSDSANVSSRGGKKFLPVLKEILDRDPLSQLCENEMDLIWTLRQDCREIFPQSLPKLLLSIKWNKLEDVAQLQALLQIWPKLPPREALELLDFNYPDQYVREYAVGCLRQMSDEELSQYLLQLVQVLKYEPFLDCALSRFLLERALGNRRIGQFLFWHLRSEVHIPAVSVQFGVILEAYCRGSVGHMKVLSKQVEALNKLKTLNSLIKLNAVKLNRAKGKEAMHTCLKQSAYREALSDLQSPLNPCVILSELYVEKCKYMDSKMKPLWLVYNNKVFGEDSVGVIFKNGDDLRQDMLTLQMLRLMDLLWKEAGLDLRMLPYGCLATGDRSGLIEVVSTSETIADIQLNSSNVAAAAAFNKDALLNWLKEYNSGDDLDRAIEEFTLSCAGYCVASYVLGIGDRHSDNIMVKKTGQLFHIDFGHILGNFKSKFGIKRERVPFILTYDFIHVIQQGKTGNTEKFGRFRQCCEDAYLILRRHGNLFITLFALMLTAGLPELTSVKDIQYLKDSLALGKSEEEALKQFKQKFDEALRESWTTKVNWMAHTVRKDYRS

[2] = Lipophilicity, log D of the compound; type: physicochemical; conditions: octanol/water
[3] = Metabolic stability in it dosed rat lungs assessed as compound remaining at 24 hrs post dose by LC-MS/MS analysis; type: ADME, organism-based; conditions: lung, inhaled or intranasal, read-out: Stability
[4] = molecular target: T1, Phosphatidylinositol 4,5-bisphosphate 3-kinase catalytic subunit delta isoform (Homo sapiens, UniProt O00329); assay: Inhibition of PI3Kdelta in human JeKo1 cells assessed as reduction in Akt phosphorylation at Ser473 residue preincubated for 60 mins followed by Anti-IgM stimulation for 10 mins by TR-FRET assay; type: cell-based
T1 sequence (O00329 whole entry): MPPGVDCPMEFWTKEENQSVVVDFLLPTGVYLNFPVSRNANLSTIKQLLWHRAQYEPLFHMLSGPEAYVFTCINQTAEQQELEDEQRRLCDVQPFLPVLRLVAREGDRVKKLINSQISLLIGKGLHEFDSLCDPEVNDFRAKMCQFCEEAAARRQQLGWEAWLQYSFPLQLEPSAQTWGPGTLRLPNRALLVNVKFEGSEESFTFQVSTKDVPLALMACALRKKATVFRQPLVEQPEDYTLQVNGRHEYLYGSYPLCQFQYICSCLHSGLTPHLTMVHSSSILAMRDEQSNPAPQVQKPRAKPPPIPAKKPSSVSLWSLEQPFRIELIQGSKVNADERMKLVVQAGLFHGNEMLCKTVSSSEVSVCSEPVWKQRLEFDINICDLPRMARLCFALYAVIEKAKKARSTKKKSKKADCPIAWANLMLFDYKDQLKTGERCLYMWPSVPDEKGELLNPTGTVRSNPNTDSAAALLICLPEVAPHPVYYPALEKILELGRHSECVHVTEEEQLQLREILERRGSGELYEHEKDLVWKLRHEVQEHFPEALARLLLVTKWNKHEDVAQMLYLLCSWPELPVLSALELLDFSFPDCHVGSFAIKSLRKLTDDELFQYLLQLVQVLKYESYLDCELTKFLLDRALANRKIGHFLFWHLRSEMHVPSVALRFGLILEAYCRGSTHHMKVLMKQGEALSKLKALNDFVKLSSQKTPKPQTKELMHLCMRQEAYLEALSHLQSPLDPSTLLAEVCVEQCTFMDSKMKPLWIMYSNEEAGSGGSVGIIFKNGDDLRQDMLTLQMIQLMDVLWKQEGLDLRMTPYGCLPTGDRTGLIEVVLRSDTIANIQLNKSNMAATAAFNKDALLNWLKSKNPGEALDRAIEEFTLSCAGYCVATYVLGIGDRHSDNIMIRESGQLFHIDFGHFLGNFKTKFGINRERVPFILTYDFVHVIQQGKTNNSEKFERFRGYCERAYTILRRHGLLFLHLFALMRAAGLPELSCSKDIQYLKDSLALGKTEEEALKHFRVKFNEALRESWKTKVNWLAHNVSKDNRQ

[5] = molecular target: PI3-kinase p110-delta/p85-alpha (Homo sapiens, UniProt O00329); assay: Inhibition of recombinant human His6-tagged PI3K p110delta/p85alpha using DiC8-PIP2 as substrate preincubated for 15 mins followed by substrate addition measured after 60 mins by ADP-Glo assay; type: protein-complex assay
Sequence of PI3-kinase p110-delta/p85-alpha (P27986 whole entry, one chain of several): as the sequence (P27986 whole entry) above

[6] = Terminal half life in it dosed rat lung by LC-MS/MS analysis; type: ADME, organism-based; conditions: inhaled or intranasal, read-out: beta t1/2 (converted)
[7] = molecular target: Phosphatidylinositol 4,5-bisphosphate 3-kinase catalytic subunit gamma isoform (Homo sapiens, UniProt P48736); assay: Inhibition of recombinant human His6-tagged PI3Kgamma (144 to 1102 residues) using DiC8-PIP2 as substrate preincubated for 15 mins followed by substrate addition measured after 60 mins by ADP-Glo assay
Sequence of Phosphatidylinositol 4,5-bisphosphate 3-kinase catalytic subunit gamma isoform (P48736 whole entry, the tested form may be a part, canonical isoform): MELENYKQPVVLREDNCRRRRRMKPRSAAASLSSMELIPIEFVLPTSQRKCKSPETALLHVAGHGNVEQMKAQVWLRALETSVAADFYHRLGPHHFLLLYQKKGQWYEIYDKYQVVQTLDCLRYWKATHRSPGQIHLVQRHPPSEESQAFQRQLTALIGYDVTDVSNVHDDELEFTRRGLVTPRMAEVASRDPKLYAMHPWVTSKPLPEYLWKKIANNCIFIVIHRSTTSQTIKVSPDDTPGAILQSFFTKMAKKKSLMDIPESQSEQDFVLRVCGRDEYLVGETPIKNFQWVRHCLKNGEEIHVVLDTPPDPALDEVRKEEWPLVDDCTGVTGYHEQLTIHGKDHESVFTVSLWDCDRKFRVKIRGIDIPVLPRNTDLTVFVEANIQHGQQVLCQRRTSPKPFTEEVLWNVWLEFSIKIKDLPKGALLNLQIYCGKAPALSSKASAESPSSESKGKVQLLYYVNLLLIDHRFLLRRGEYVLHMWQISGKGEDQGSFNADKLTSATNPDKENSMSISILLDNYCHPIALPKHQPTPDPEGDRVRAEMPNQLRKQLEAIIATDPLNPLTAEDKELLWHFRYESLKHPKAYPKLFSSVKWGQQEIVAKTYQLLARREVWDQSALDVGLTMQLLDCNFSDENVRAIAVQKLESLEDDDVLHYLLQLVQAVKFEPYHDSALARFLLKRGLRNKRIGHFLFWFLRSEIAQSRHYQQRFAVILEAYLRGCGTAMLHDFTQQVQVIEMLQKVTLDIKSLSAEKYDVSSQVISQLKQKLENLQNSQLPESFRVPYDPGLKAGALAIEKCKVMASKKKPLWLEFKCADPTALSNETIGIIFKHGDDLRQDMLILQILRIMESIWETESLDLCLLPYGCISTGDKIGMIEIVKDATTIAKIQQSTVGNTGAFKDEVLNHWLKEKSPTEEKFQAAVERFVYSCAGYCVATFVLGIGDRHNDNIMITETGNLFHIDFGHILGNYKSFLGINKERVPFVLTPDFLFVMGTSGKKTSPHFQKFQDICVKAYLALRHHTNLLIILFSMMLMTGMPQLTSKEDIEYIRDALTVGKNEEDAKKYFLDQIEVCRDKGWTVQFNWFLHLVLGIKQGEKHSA

[8] = molecular target: PI3-kinase p110-alpha/p85-alpha (Homo sapiens, UniProt P42336); assay: Inhibition of recombinant human His6-tagged PI3K p110alpha/p85alpha using DiC8-PIP2 as substrate preincubated for 15 mins followed by substrate addition measured after 60 mins by ADP-Glo assay; type: protein-complex assay
Sequence of PI3-kinase p110-alpha/p85-alpha (P27986 whole entry): as the sequence (P27986 whole entry) above
Sequence of PI3-kinase p110-alpha/p85-alpha (P42336 whole entry): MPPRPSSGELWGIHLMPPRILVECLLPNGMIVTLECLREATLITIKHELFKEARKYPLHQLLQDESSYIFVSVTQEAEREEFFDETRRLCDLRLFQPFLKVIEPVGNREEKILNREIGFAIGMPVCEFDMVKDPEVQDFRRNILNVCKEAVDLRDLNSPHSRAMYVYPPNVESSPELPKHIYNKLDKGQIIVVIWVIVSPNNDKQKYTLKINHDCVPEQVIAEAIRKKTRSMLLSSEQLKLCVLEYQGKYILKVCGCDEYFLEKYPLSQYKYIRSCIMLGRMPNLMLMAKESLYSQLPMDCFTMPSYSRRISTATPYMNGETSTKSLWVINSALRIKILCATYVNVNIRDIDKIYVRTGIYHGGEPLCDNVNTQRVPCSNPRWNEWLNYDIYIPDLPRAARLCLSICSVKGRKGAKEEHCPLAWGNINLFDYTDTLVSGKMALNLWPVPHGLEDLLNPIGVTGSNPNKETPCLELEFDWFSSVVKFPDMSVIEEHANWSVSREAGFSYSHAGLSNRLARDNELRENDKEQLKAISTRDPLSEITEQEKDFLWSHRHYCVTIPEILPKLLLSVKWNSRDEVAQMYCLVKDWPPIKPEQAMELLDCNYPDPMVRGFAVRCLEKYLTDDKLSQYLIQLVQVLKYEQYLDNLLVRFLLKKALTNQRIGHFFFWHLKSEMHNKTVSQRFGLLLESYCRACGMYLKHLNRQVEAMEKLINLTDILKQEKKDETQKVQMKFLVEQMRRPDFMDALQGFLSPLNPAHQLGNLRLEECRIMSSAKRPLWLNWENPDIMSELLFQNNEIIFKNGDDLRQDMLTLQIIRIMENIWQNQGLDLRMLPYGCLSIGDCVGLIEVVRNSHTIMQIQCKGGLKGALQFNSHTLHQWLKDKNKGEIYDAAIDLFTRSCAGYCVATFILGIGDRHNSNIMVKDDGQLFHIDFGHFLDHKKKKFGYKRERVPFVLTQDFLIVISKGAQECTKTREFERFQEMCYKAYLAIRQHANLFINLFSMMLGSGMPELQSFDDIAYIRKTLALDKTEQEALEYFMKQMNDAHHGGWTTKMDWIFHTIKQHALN

[9] = Solubility of the compound; type: physicochemical
[10] = Dissociation constant, acidic pKa of compound; type: physicochemical
[11] = Dissociation constant, basic pKa of compound; type: physicochemical
[12] = Metabolic stability in it dosed rat lungs assessed as compound remaining at 3 mins post dose by LC-MS/MS analysis; type: ADME, organism-based; conditions: lung, inhaled or intranasal, read-out: Stability

Row | remaining at 4 h [1] [%] | IC50 (PI3K p110 beta/p85 alpha) [nM] | logD [2] | remaining at 24 h [3] [%] | IC50 [4] [nM] | IC50 [5] [nM] | half-life [6] [min] | IC50 [7] [nM] | IC50 [8] [nM] | solubility [9] [µM] | pKa [10] | pKa [11] | remaining at 0.05 h [12] [%] | SMILES
1 | 0.8 | 20 | 0.7 | 0 | 2.51 | 0.631 | 78 | 398 | 1260 | > 1000 | – | – | – | COCCNCc1cccc(-c2c([C@H](C)Nc3ncnc(N)c3C#N)cc3scc(C)n3c2=O)c1
2 | – | 63.1 | 2 | 5.2 | 2 | 0.794 | 654 | ≥ 200 | ≥ 631 | – | 9 | 7 | – | Cc1csc2cc([C@H](C)Nc3ncnc(N)c3C#N)c(-c3cccc(CN4CCC(CN(C)Cc5ccccn5)CC4)c3)c(=O)n12
3 | – | 398 | 1.1 | – | 1.58 | 0.631 | – | 251 | 1000 | – | – | – | – | Cc1csc2cc([C@H](C)Nc3ncnc(N)c3C#N)c(-c3cccc(CC4CCN(C(C)C)CC4)c3)c(=O)n12
4 | – | 200 | 0.7 | – | 6.31 | 1.58 | – | 316 | 7940 | – | – | – | – | Cc1csc2cc([C@H](C)Nc3ncnc(N)c3C#N)c(-c3cccc(OCCN(C)C)c3)c(=O)n12
5 | – | 251 | 1.4 | 0 | 1.26 | 0.794 | – | ≥ 200 | ≥ 631 | – | 8 | 4 | – | CCN(CCN1CCOCC1)Cc1cccc(-c2c([C@H](C)Nc3ncnc(N)c3C#N)cc3scc(C)n3c2=O)c1
6 | 0.2 | 63.1 | 0.8 | 0 | 1.58 | 0.794 | 138 | 631 | 3160 | 956 (≈ 439 µg/mL) | – | – | – | Cc1csc2cc([C@H](C)Nc3ncnc(N)c3C#N)c(-c3cccc(CN(C)C)c3)c(=O)n12
7 | 0.5 | 39.8 | 0.5 | 0 | 2.51 | 0.501 | 66 | 501 | 1580 | 954 (≈ 450 µg/mL) | – | – | – | Cc1csc2cc([C@H](C)Nc3ncnc(N)c3C#N)c(-c3cccc(CN4CCC4)c3)c(=O)n12
8 | 2.5 | 10 | -0.2 | 0 | 20 | 0.794 | 294 | 631 | 1260 | > 1000 | – | – | – | CNCc1cccc(-c2c([C@H](C)Nc3ncnc(N)c3C#N)cc3scc(C)n3c2=O)c1
9 | – | 50.1 | 0.5 | – | 2.51 | 0.794 | – | > 1000 | 1260 | – | – | – | – | Cc1csc2cc([C@H](C)Nc3ncnc(N)c3C#N)c(-c3cccc(CCN(C)C)c3)c(=O)n12
10 | – | 15.8 | 2.2 | 7.4 | 2 | 0.501 | 1060 | ≥ 200 | ≥ 631 | – | 9.1 | 7 | – | Cc1csc2cc([C@H](C)Nc3ncnc(N)c3C#N)c(-c3cccc(CN(C)CCCCN(C)Cc4ccccc4)c3)c(=O)n12
11 | – | 20 | 0.6 | 0.1 | 12.6 | 0.631 | 252 | ≥ 200 | ≥ 631 | – | 9.6 | 4.7 | – | Cc1csc2cc([C@H](C)Nc3ncnc(N)c3C#N)c(-c3cccc(CNCCN4CCOCC4)c3)c(=O)n12
12 | – | 12.6 | 3.2 | 3.3 | 3.16 | 0.631 | 780 | ≥ 200 | ≥ 631 | – | 8.8 | 7.5 | – | Cc1csc2cc([C@H](C)Nc3ncnc(N)c3C#N)c(-c3cccc(CN(C)CCCN(C)Cc4ccc(Cl)cc4)c3)c(=O)n12
13 | 0 | 50.1 | 2.7 | 0 | 0.631 to 0.794 | 0.398 | < 6 | 12.6 | 631 | 77 (≈ 31 µg/mL) | – | – | 2 | Cc1csc2cc([C@H](C)Nc3ncnc(N)c3C#N)c(-c3ccccc3)c(=O)n12
14 | – | 126 | 1.5 | 0.8 | 5.01 | 1.26 | 354 | ≥ 200 | ≥ 631 | – | 8.5 | 5.7 | – | Cc1csc2cc([C@H](C)Nc3ncnc(N)c3C#N)c(-c3cccc(CN(C)CCCN4C[C@@H](C)O[C@@H](C)C4)c3)c(=O)n12
15 | – | 50.1 | 2.1 | 3.3 | 2.51 | 0.631 | 720 | ≥ 200 | ≥ 631 | – | 9.8 | 8 | – | Cc1csc2cc([C@H](C)Nc3ncnc(N)c3C#N)c(-c3cccc(CN4CCC(CN(C)CC(C)C)CC4)c3)c(=O)n12
16 | 0 | 100 | 2.3 | 0 | 0.631 to 1.58 | 0.501 | – | > 794 | 2000 | 12 (≈ 6.02 µg/mL) | – | – | 6.5 | Cc1csc2cc([C@H](C)Nc3ncnc(N)c3C#N)c(-c3cccc(CN(C)CC(C)C)c3)c(=O)n12
17 | 4.8 | 7.94 | 2.3 | 0 | 1.26 | 0.398 | 210 | 316 | 501 | 699 (≈ 425 µg/mL) | – | – | – | Cc1csc2cc([C@H](C)Nc3ncnc(N)c3C#N)c(-c3cccc(CNCCCCOCCc4ccccc4)c3)c(=O)n12
18 | 2 | 7.94 | -0.3 | 0 | 39.8 | 0.631 | 96 | 200 | 1260 | > 1000 | – | – | – | Cc1csc2cc([C@H](C)Nc3ncnc(N)c3C#N)c(-c3cccc(CN)c3)c(=O)n12
19 | – | 79.4 | 1.5 | 3.9 | 6.31 | 1.26 | 456 | ≥ 200 | ≥ 631 | – | 8.9 | 6.3 | – | Cc1csc2cc([C@H](C)Nc3ncnc(N)c3C#N)c(-c3cccc(CN(C)CCCCN4C[C@@H](C)O[C@@H](C)C4)c3)c(=O)n12
